{"source": "patent US12163169B2", "about": "“Inducible chimeric cytokine receptors” (Allogene Therapeutics, Inc., priority 2018, dated 2024)", "molecules": {"B1": {"name": "CD8 SS-Myc-FKBP(F36V)-EpoR(237-338; L241G, L242P)-IFNAR2(310-515): inducible chimeric cytokine receptor (protein)", "chain": "KKKVWDYNYDDESDSDTEAAPRTSGGGYTMHGLTVRPLGQASATSTESQLIDPESEEEPDLPEVDVELPTMPKDSPQQLELLSGPCERRKSPLQDPFPEEDYSSTEGSGGRITFNVDLNSVFLRVLDDEDSDDLEAPLMLSSHLEEMVDPEDPDNVQSNHLLASGEGTQPTFPSPSSEGLWSEDAPSDQSDTSESDVDLGDGYIMR"}}, "key": {"[1]": {"test_system": "STAT4", "assay": "STAT4 luciferase reporter assay comparing tyrosine kinase activating domains in HEK293 cells co-transfected with STAT4 (Example 5A)", "format": "cell-based", "conditions": "for basal signaling: without ligand", "excerpt": "For this study, several tyrosine kinase activating domains were compared using a otherwise identical inducible cytokine receptor design. The tyrosine effector domain consists of a STAT5-activating sequence from IL7R fused to a STAT4-activating sequence from IL12Rb2. Each construct contains a membrane-targeting motif (CD8 SS), a dimerization domain (FKBP(F36V)), a tyrosine kinase activating domain derived from either the EpoR, GP130, PrIR, GHR, GCSFR, or TPOR/MPLR receptors, and a tyrosine effector domain consisting of the IL7R(316-459) cytotail fused to the IL12Rb2(775-825) peptide. Chimeric cytokine receptors also include an epitope tag for detection (Myc). The following inducible chimeric cytokine receptors were tested in this study:\nHEK293 cells were transfected with constructs encoding the above inducible chimeric cytokine receptors, and a luciferase reporter for either STAT4 or STAT5. The luciferase reporters (Promega) encoded a luciferase under the control of either a STAT4 or STAT5 responsive element. As HEK293 cells lack STAT4, in wells transfected with the STAT4 reporter, a plasmid encoding constitutively-expressed STAT4 was transfected as well added. Transfected EpoR, GHR, and IL12Rb1+IL12Rb2 (the IL12 receptor) were used as positive controls. The ligand added to inducible chimeric cytokine receptors was AP1903. Epo was added to EpoR transfected cells, Growth Hormone to GHR transfected cells, and IL-12 to IL12 receptor transfected cells"}, "[2]": {"test_system": "CAR-T cells", "assay": "Live cell count and viability of EGFRvIII CAR-T cells grown with IL2, AP1903 or no treatment (Example 7)", "format": "cell-based, human", "conditions": "for CAR-T cell growth with AP1903 (live cell count) / CAR-T cell viability with AP1903: EGFRvIII CAR-T cells; for CAR-T cell growth with AP1903 (live cell count): 8 days post production, FIG. 16; for CAR-T cell viability with AP1903: FIG. 17", "excerpt": "(§1) In this study, lentiviral (pLVX) constructs were generated comprising an SFFV promoter followed by a kozak sequence, the inducible chimeric cytokine receptor, a T2A sequence, and a chimeric antigen receptor. The chimeric antigen receptor was directed towards cells expressing EGFRvIII. For comparison, lentiviral constructs with either TagBFP or GoCART instead of the inducible chimeric cytokine receptor were used. GoCART consists of a myristoylation sequence followed by a portion of MyD88 and CD40 fused to two repeats of FKBP(F36V).\n(§2) The T cells were transduced with lentivirus 2 days after isolation, and 3 days later were FACS sorted by binding APC-labeled EGFRvIII. The sorted EGFRvIII+ cells were cultured until 14 days post isolation.\nAt day 14, the 0.5e6 cells were resuspended in a 24-well plate, and grown with either IL2, AP1903, or no treatment for 8 days post production."}, "[3]": {"test_system": "CAR-T cells", "assay": "Cytokine measurement of CAR-T cells on day 2 and day 8 (Example 7)", "format": "cell-based, human", "conditions": "for cytokine release without any treatment: day 2 and 8 post production, FIG. 23, FIG. 24; for autoactivation (cytokine release in the absence of small molecule): no treatment", "excerpt": "as §1, §2\nCytokines were measured on day 2 and day 8. AP1903 data is shown FIG. 20 and FIG. 21. All values were normalized to untreated TagBFP-expressing CAR-T Cells. […] The IFN-related tails do incur some cytokine release.\nInduction of cytokines at day 2 and 8 post production without any treatment was measured."}, "[4]": {"test_system": "STAT5", "assay": "STAT5 signaling by IL7Ra, IL2Rb and IFNAR2 derived cytotail fragments (Example 6, FIG. 11)", "format": "cell-based", "conditions": "EpoR(237-338; L241G, L242P) tyrosine kinase activating domain, short (8 h) AP1903 treatment", "procedure": "In this study, IL2Rb, IL7R, and […] cytotails were analyzed to identify tyrosines sufficient for key aspects of signaling. For instance, a segment of IL2Rb containing the STAT5-interacting tyrosines Y418 and Y436 might retain STAT5 signaling, but may lose PI3K signaling as this requires Y364 of the IL2Rb cytotail. Inducible chimeric cytokine receptors comprising the IL7R, IL2Rb, and IFNAR2 tails may include one or more tyrosine motifs within the cytotails. Elimination of one or more portions of the tail (e.g., the IL12Rb2 tail) in some cases results in removal of negative regulatory motifs and stronger signaling.\nIn this study, signaling by a variety of IL7Ra and IL2Rb derived fragments using the EpoR-based tyrosine kinase activating domain were tested. The following inducible chimeric cytokine receptors were tested in this study:\nConstructs that are plotted include tyrosine effector domains derived from the IL7R and IL2Rb cytotails."}, "[5]": {"test_system": "CAR-T cells", "assay": "Phenotyping of CAR-T cells at day 8 post production (Example 7)", "format": "cell-based, human", "conditions": "for cell phenotype after growth with AP1903: FIG. 18, FIG. 19", "excerpt": "as §1, §2\nAt day 8 post production growth with AP1903 or IL2, cells were phenotyped."}}, "data": [{"molecule": "CD8 SS-Myc-FKBP(F36V)-GCSFR(614-710)-IL7R(316-459)-IL12Rb2(775-825): inducible chimeric cytokine receptor", "values": [{"measurement": "signaling for STAT4", "setting": "[1]; AP1903, FIG. 9", "value": "strongest signaling for STAT4"}, {"measurement": "basal signaling", "setting": "[1]; FIG. 9", "value": "had basal signaling"}]}, {"molecule": "CD8 SS-Myc-FKBP(F36V)-EpoR(237-338; L241G, L242P)-IL2Rb(333-551): inducible chimeric cytokine receptor", "values": [{"measurement": "CAR-T cell growth with AP1903 (live cell count)", "setting": "[2]", "value": "slight growth"}, {"measurement": "cytokine release without any treatment", "setting": "[3]", "value": "release IL13 and some TNFa (day 2, FIG. 23) that diminishes by day 8"}, {"measurement": "autoactivation (cytokine release in the absence of small molecule)", "setting": "[3]; day 2 and day 8", "value": "mildly autoactivating"}]}, {"molecule": "CD8 SS-Myc-FKBP(F36V)-EpoR(237-338; L241G, L242P)-IL7R(316-459)-IL12Rb2(775-825): inducible chimeric cytokine receptor", "values": [{"measurement": "basal signaling", "setting": "[1]; FIG. 9", "value": "lowest basal signaling"}]}, {"molecule": "CD8 SS-Myc-FKBP(F36V)-EpoR(237-338; L241G, L242P)-IL7R(376-416, 424-459; Y456F): inducible chimeric cytokine receptor", "values": [{"measurement": "STAT5 signaling of cytotail fragments", "setting": "[4]", "value": "fully recreated"}]}, {"molecule": "GoCART: myristoylation sequence followed by a portion of MyD88 and CD40 fused to two repeats of FKBP(F36V); previously reported multimerizer [reference compound]", "values": [{"measurement": "cell phenotype after growth with AP1903", "setting": "[5]", "value": "less stem cell memory and more effector memory"}, {"measurement": "cell phenotype when grown further with IL2", "setting": "[5]; IL2", "value": "somewhat more differentiated"}, {"measurement": "CAR-T cell growth with AP1903 (live cell count)", "setting": "[2]", "value": "slight growth"}, {"measurement": "CAR-T cell viability with AP1903", "setting": "[2]", "value": "higher viability with AP1903 comparable to IL2 treatment"}, {"measurement": "cytokine release without any treatment", "setting": "[3]", "value": "GM-CSF, IL5, IL13, IL22, and MIP1a at day 2 and more so at day 8"}, {"measurement": "cytokine release with AP1903", "setting": "[3]; day 2 and day 8, normalized to untreated TagBFP-expressing CAR-T Cells, FIG. 20, FIG. 21", "value": "robust cytokine release"}, {"measurement": "autoactivation (cytokine release in the absence of small molecule)", "setting": "[3]; day 2 and day 8", "value": "strongly so"}]}, {"molecule": "CD8 SS-Myc-FKBP(F36V)-EpoR(237-338; L241G, L242P)-IL7R(316-459): inducible chimeric cytokine receptor", "values": [{"measurement": "cell phenotype after growth with AP1903", "setting": "[5]", "value": "more stem cell memory"}, {"measurement": "CAR-T cell growth with AP1903 (live cell count)", "setting": "[2]", "value": "robust growth"}, {"measurement": "CAR-T cell viability with AP1903", "setting": "[2]", "value": "higher viability with AP1903 comparable to IL2 treatment"}, {"measurement": "cytokine release without any treatment", "setting": "[3]", "value": "No cytokine release was observed"}]}, {"molecule": "CD8 SS-Myc-FKBP(F36V)-EpoR(237-338; L241G, L242P)-IL2Rb(393-433, 518-551): inducible chimeric cytokine receptor", "values": [{"measurement": "STAT5 signaling of cytotail fragments", "setting": "[4]", "value": "far greater signaling"}]}, {"molecule": "CD8 SS-Myc-FKBP(F36V)-EpoR(237-338; L241G, L242P)-IL12Rb2(775-825): inducible chimeric cytokine receptor", "values": [{"measurement": "STAT4 signaling when used as a tyrosine effector domain", "setting": "[1]; peptide containing Y800, see Examples 3 and 5", "value": "sufficient to provide STAT4 signaling"}]}, {"molecule": "B1", "values": [{"measurement": "CAR-T cell counts on post-production day 5 and day 8", "setting": "[2]; FIG. 25", "value": "least growth"}, {"measurement": "growth without signaling", "setting": "[2]; no treatment, over a week, FIG. 22", "value": "some less growth"}, {"measurement": "IL-2 consumption", "setting": "[3]; Day 8 cytokine measurements", "value": "did not consume as much IL-2"}, {"measurement": "cytokine release without any treatment", "setting": "[3]", "value": "constitutively release small amounts of IL5"}, {"measurement": "autoactivation (cytokine release in the absence of small molecule)", "setting": "[3]; day 2 and day 8", "value": "mildly autoactivating"}]}]}
